In patent US20230355597A1, “COMPOUNDS, COMPOSITIONS, AND METHODS FOR THE TREATMENT AND PREVENTION OF AVIAN PATHOGENIC E. COLI (APEC)” (OHIO STATE INNOVATION FOUNDATION, priority 2018, published 2023):
Converted amounts (≈) assume the structure as drawn. Marks after values point to notes of the source that are not given here.

Experiments:
[1] = system: AI-2 activity of APEC O35; assay: AI-2 bioluminescence indicator assay (V. harveyi BB170); settings: APEC O35, 100 µM
[2] = system: AI-2 activity of APEC O78; assay: as above; settings: APEC O78, 100 µM
AI-2 activity of APEC O8 = assay: as above; settings: APEC O8, 100 µM
[3] = system: AI-2 activity of APEC O109; assay: as above; settings: APEC O109, 100 µM
[4] = system: AI-2 activity of APEC O18; assay: as above; settings: APEC O18, 100 µM
Rif^r APEC O78 [5] = assay: In vivo screening of quorum sensing inhibitors in APEC infected broiler chickens; settings: for reduction in chicken mortality: DMSO control mortality normalized to 100%; for Mortality rate (%): oral gavage once a day, day 4 to day 8, DMSO control 66.7%; for Reduction in APEC lesions severity, Air-sacs (%) / Reduction in APEC lesions severity, Heart (%) / Reduction in APEC lesions severity, Liver (%) / Reduction in APEC lesions severity, Lung (%): vs DMSO treated control
AI-2 activity of APEC O2 = assay: AI-2 bioluminescence indicator assay (V. harveyi BB170); settings: APEC O2, 100 µM
[6] = system: AI-2 activity of APEC O115; assay: as above; settings: APEC O115, 100 µM
Rif^r APEC O78 [7] = assay: Wax moth (Galleria mellonella) larva infection model (AI-2 inhibitors)
[8] = system: AI-2 activity of APEC O15; assay: AI-2 bioluminescence indicator assay (V. harveyi BB170); settings: APEC O15, 100 µM
AI-2 activity of APEC O1 = assay: as above; settings: APEC O1, 100 µM
APEC O78 [9] = assay: Loss of 260/280 nm absorbing materials assay; format: cell-based, avian pathogenic Escherichia coli (APEC); settings: 2X MBC, 1 h, *P<0.05 vs DMSO; for Absorbance 260: 260 nm absorbing material in supernatant; for Absorbance 280: 280 nm absorbing material in supernatant
APEC O1 = format: cell-based, avian pathogenic Escherichia coli (APEC); settings: APEC O1, M63 media; MIC/MBC
[10] = system: intracellular APEC O78 in Caco-2 cells; assay: Intracellular survival assay (cidal SMs); settings: O78, Caco-2, 6 h treatment; superscript = multiple of MIC
[11] = system: biofilm embedded APEC O78; assay: MBEC High-throughput assay; format: cell-based, avian pathogenic Escherichia coli (APEC); settings: biofilm embedded APEC O78; superscript = multiple of MIC (footnote)
Method: Effect against biofilm embedded APEC. The effect of cidal SMs against biofilm embedded APEC was determined using MBEC High-throughput (HTP) assay (Innovotech Inc., AB, Canada). Briefly, 150 µL of 0.05 OD600 adjusted APEC O78 culture was aliquoted into each well of the MBEC device containing polystyrene pegs and incubated at 37° C. for 36 h in LB media under stationary condition. […] The plate was incubated in the dark for 18 h at 37° C. with rotation at 110 rpm. The DMSO (1%) and M63 media were used as positive and negative controls, respectively. Following incubation, MIC of SMs in challenged plate was recorded. The SMs exposed pegs were then transferred to a new 96-well plate containing PBS and sonicated for 30 mins (Aquasonic ultrasonic cleaner, VWR) to disrupt the biofilm. […] Biofilm embedded APEC bacteria were enumerated and minimum biofilm eradication concentration (MBEC) of […] were determined. Two independent experiments were conducted.

APEC O18 = format: cell-based, avian pathogenic Escherichia coli (APEC); settings: APEC O18, M63 media; MIC/MBC
APEC O8 = format: cell-based, avian pathogenic Escherichia coli (APEC); settings: APEC O8, M63 media; MIC/MBC
APEC O115 = format: cell-based, avian pathogenic Escherichia coli (APEC); settings: APEC O115, M63 media; MIC/MBC
APEC O78-53 = format: cell-based, avian pathogenic Escherichia coli (APEC); settings: APEC O78-53, M63 media; MIC/MBC
[12] = system: intracellular APEC O2 in THP-1 cells; assay: Intracellular survival assay (cidal SMs); settings: O2, THP-1, 6 h treatment; superscript = multiple of MIC
APEC O1-63 = format: cell-based, avian pathogenic Escherichia coli (APEC); settings: APEC O1-63, M63 media; MIC/MBC
[13] = system: intracellular APEC O2 in Caco-2 cells; assay: Intracellular survival assay (cidal SMs); settings: O2, Caco-2, 6 h treatment; superscript = multiple of MIC
APEC O15 = format: cell-based, avian pathogenic Escherichia coli (APEC); settings: APEC O15, M63 media; MIC/MBC
APEC O2-211 = format: cell-based, avian pathogenic Escherichia coli (APEC); settings: APEC O2-211, M63 media; MIC/MBC
[14] = system: intracellular APEC O1 in Caco-2 cells; assay: Intracellular survival assay (cidal SMs); settings: O1, Caco-2, 6 h treatment; superscript = multiple of MIC
APEC O109 = format: cell-based, avian pathogenic Escherichia coli (APEC); settings: APEC O109, M63 media; MIC/MBC
[15] = system: intracellular APEC O78 in HD11 cells; assay: Intracellular survival assay (cidal SMs); settings: O78, HD11, 6 h treatment; superscript = multiple of MIC
[16] = system: intracellular APEC O1 in HD11 cells; assay: Intracellular survival assay (cidal SMs); settings: O1, HD11, 6 h treatment; superscript = multiple of MIC
[17] = system: intracellular APEC O1 in THP-1 cells; assay: Intracellular survival assay (cidal SMs); settings: O1, THP-1, 6 h treatment; superscript = multiple of MIC
[18] = system: intracellular APEC O2 in HD11 cells; assay: Intracellular survival assay (cidal SMs); settings: O2, HD11, 6 h treatment; superscript = multiple of MIC
APEC O78 [19] = assay: Confocal microscopy bacterial cytological profiling; format: cell-based, avian pathogenic Escherichia coli (APEC); settings: 2X MBC
Method: Confocal and scanning electron microscopy. Confocal microscopy was used for bacterial cytological profiling (BCP) to identify the cellular pathways targeted by SMs as described previously. […] After incubation, treated cultures were centrifuged, washed, and resuspended in 100 μL PBS. […] Cultures were then centrifuged, washed, and resuspended in PBS to 1⁄10th volume of the original cultures.

APEC O35 = format: cell-based, avian pathogenic Escherichia coli (APEC); settings: APEC O35, M63 media; MIC/MBC
[20] = system: intracellular APEC O78 in THP-1 cells; assay: Intracellular survival assay (cidal SMs); settings: O78, THP-1, 6 h treatment; superscript = multiple of MIC
Rif^r APEC O78 [21] = assay: In vivo efficacy of growth inhibitors in APEC infected broiler chickens
APEC O2 = format: cell-based, avian pathogenic Escherichia coli (APEC); settings: APEC O2, M63 media; MIC/MBC
APEC O78 [22] = format: cell-based, avian pathogenic Escherichia coli (APEC)

Cc1ccccc1N1CCN(C2CCCN(C(=O)c3ccc(F)c(Cl)c3)C2)CC1 (centres unmarked) [C2, 1-[1-{3-chloro-4-fluorbenzoyl)-3-piperdinyl]-4-(2-methylphenyl)piperazine]
Inhibition % of AI-2 activity [1]: 55%
Inhibition % of AI-2 activity [2]: 92%
Inhibition % of AI-2 activity (AI-2 activity of APEC O8): 20%
Inhibition % of AI-2 activity [3]: 57%
Inhibition % of AI-2 activity [4]: 43%
reduction in chicken mortality (Rif^r APEC O78 [5]): 50%
Mortality rate (%) (Rif^r APEC O78 [5]): 33.3%
Reduction in APEC lesions severity, Air-sacs (%) (Rif^r APEC O78 [5]): 63.3%
Reduction in APEC lesions severity, Heart (%) (Rif^r APEC O78 [5]): 37.5%
Reduction in APEC lesions severity, Liver (%) (Rif^r APEC O78 [5]): 45.5%
Reduction in APEC lesions severity, Lung (%) (Rif^r APEC O78 [5]): 88.9%
Inhibition % of AI-2 activity (AI-2 activity of APEC O2): 96%
Inhibition % of AI-2 activity [6]: 52%
larval death (Rif^r APEC O78 [7]; 48 h post treatment): no larval death
clearance of APEC in live larvae (Rif^r APEC O78 [7]; 72 h): 100%
Inhibition % of AI-2 activity [8]: 27%
Inhibition % of AI-2 activity (AI-2 activity of APEC O1): 64%

O=C(CCN1CCN(c2ccccc2F)CC1)Nc1ccc(Br)cc1 [C7, N-(4-bromophenyl)-3-[4-(2-fluomphenyl)-1-piperazinyl]propanamide]
Inhibition % of AI-2 activity [1]: 62%
Inhibition % of AI-2 activity [2]: 94%
Inhibition % of AI-2 activity (AI-2 activity of APEC O8): 2%
Inhibition % of AI-2 activity [3]: 67%
Inhibition % of AI-2 activity [4]: 48%
reduction in chicken mortality (Rif^r APEC O78 [5]): did not reduce
Mortality rate (%) (Rif^r APEC O78 [5]): 66.7%
Reduction in APEC lesions severity, Air-sacs (%) (Rif^r APEC O78 [5]): 33.3%
Reduction in APEC lesions severity, Heart (%) (Rif^r APEC O78 [5]): 33.3%
Reduction in APEC lesions severity, Liver (%) (Rif^r APEC O78 [5]): 33.3%
Reduction in APEC lesions severity, Lung (%) (Rif^r APEC O78 [5]): 83.3%
Inhibition % of AI-2 activity (AI-2 activity of APEC O2): 83%
Inhibition % of AI-2 activity [6]: 45%
larval death (Rif^r APEC O78 [7]; 72 h post treatment): no larval death
Inhibition % of AI-2 activity [8]: 36%
Inhibition % of AI-2 activity (AI-2 activity of APEC O1): 47%

O=C(O)CN(CCN(CC(=O)O)CC(=O)O)CC(=O)O [EDTA, reference compound]
Absorbance 260 (APEC O78 [9]): 4.00*
Absorbance 280 (APEC O78 [9]): 2.60

COc1cc(CNCCc2ccc(C)cc2)ccc1OCC(O)CN1CCCC1 (centres unmarked) [SM3]
MBC (APEC O1): 200 µM (≈ 79.7 µg/mL)
MIC (APEC O1): 100 µM (≈ 39.9 µg/mL)
SMs intracellular APEC clearance concentration [10]: 100^a µM
MBEC [11]: 50^b µM
MBC (APEC O18): 100 µM (≈ 39.9 µg/mL)
MIC (APEC O18): 100 µM (≈ 39.9 µg/mL)
MBC (APEC O8): 100 µM (≈ 39.9 µg/mL)
MIC (APEC O8): 100 µM (≈ 39.9 µg/mL)
MBC (APEC O115): 100 µM (≈ 39.9 µg/mL)
MIC (APEC O115): 100 µM (≈ 39.9 µg/mL)
MBC (APEC O78-53): 200 µM (≈ 79.7 µg/mL)
MIC (APEC O78-53): 100 µM (≈ 39.9 µg/mL)
SMs intracellular APEC clearance concentration [12]: 100^a µM
MBC (APEC O1-63): 200 µM (≈ 79.7 µg/mL)
MIC (APEC O1-63): 200 µM (≈ 79.7 µg/mL)
SMs intracellular APEC clearance concentration [13]: >200 µM
MBC (APEC O15): 100 µM (≈ 39.9 µg/mL)
MIC (APEC O15): 100 µM (≈ 39.9 µg/mL)
MBC (APEC O2-211): 100 µM (≈ 39.9 µg/mL)
MIC (APEC O2-211): 100 µM (≈ 39.9 µg/mL)
SMs intracellular APEC clearance concentration [14]: >200 µM
MBC (APEC O109): 200 µM (≈ 79.7 µg/mL)
MIC (APEC O109): 100 µM (≈ 39.9 µg/mL)
SMs intracellular APEC clearance concentration [15]: 100^a µM
SMs intracellular APEC clearance concentration [16]: 200^b µM
SMs intracellular APEC clearance concentration [17]: 200^b µM
SMs intracellular APEC clearance concentration [18]: 200^b µM
Absorbance 260 (APEC O78 [9]): 3.77
Absorbance 280 (APEC O78 [9]): 2.84*
cytological profile (confocal, FM4-64 / SYTO-9) (APEC O78 [19]): membrane pore formers
MBC (APEC O35): 200 µM (≈ 79.7 µg/mL)
MIC (APEC O35): 100 µM (≈ 39.9 µg/mL)
SMs intracellular APEC clearance concentration [20]: 100^a µM
reduction of average APEC load in internal organs (Rif^r APEC O78 [21]; average of liver, heart, lung and kidney, vs untreated control): either exacerbated or did not reduce
reduction of APEC lesions severity (%), Air-sacs (airsacculitis) (Rif^r APEC O78 [21]; untreated control = 100%): -29.4%
reduction of APEC lesions severity (%), Heart (pericarditis) (Rif^r APEC O78 [21]; untreated control = 100%): 4%
reduction of APEC lesions severity (%), Liver (perihepatitis) (Rif^r APEC O78 [21]; untreated control = 100%): -20%
reduction of APEC lesions severity (%), Lung (lung congestion) (Rif^r APEC O78 [21]; untreated control = 100%): 0%
reduction of APEC load, Heart (Rif^r APEC O78 [21]; vs untreated control): -2.1 log CFU/g of tissues
reduction of APEC load, Kidney (Rif^r APEC O78 [21]; vs untreated control): -1.4 log CFU/g of tissues
reduction of APEC load, Liver (Rif^r APEC O78 [21]; vs untreated control): -1.8 log CFU/g of tissues
reduction of APEC load, Lung (Rif^r APEC O78 [21]; vs untreated control): -2.0 log CFU/g of tissues
Body weight gain (BWG) (Rif^r APEC O78 [21]; weight of live chickens before necropsy minus weight before treatment): 254.58±95.03
MBC (APEC O2): 200 µM (≈ 79.7 µg/mL)
MIC (APEC O2): 100 µM (≈ 39.9 µg/mL)
MBC relative to MIC (APEC O78 [22]; APEC O78): identical to MIC
MIC (APEC O78 [22]; APEC O78, M63 media, MIC/MBC): 100 µM (≈ 39.9 µg/mL)
MBC (APEC O78 [22]; APEC O78, M63 media, cell prints MIC/MBC): 100 µM (≈ 39.9 µg/mL)
